From patent US5811427A (priority 1997, dated 1998)

Key:
Pythium ultimum = experiment: Fungitoxicity against Pythium ultimum (inhibition of mycelial growth in liquid broth); assay type: cell-based; settings: Globisporangium ultimum, 48 hours at 25° C. with shaking, asparagine-sucrose broth, read-out: % Inhibition of growth (increase in mycelial dry weight) as compared to controls
Experimental: Compounds were tested for fungitoxicity against Pythium ultimum according to the procedures set forth below.
Test compounds were dissolved in dimethylsulfoxide at 20 mg/ml and 0.1 ml was added to 19.9 ml of a liquid asparagine-sucrose broth, prepared according to the method described in Erwin, D. C., and Katznelson, K., Canadian Journal of Microbiology 7, 15 (1971), in 9 cm petri dishes to give a concentration of 100 ppm of the compound. Each plate was inoculated with a mycelial plug, 7 mm in diameter, taken from the growing edge of a culture of Pythium ultimum grown on potato dextrose agar. Two replicate plates were used for each treatment. After growth for 48 hours at 25° C. with shaking on a gyrotary shaker at 60 rpm, the increase in mycelial dry weight was determined. Fungitoxicity was recorded as percent inhibition of growth as compared to controls lacking the test compounds.

Phytophthora infestans = experiment: whole plant or invertebrate; assay type: in vivo; settings: in Solanum lycopersicum, 144 h, read-out: percent disease control, TLB
Plasmopara viticola = assay type: in vivo; settings: 7-8 days at 20° C.
[1] = system: Pseudoperonospora cubensis; settings: in vivo

| SMILES | inhibition at 100 ppm (Pythium ultimum) | pest or weed control at 375 ppm (Phytophthora infestans) | pest or weed control at 300 ppm (Phytophthora infestans) | percent disease control, GDM (Plasmopara viticola) | percent disease control, CDM [1] | pest or weed control at 750 ppm (Phytophthora infestans) |
| --- | --- | --- | --- | --- | --- | --- |
| CCC(C)(NC(=O)c1ccc2ncoc2c1)C(=O)CCl (stereo not shown) [Compound 1] | 89.4% | 100% |  |  |  |  |
| CCC(C)(NC(=O)c1cc(Cl)c2ncoc2c1)C(=O)CCl (stereo not shown) [Compound 3] | 92% |  | 100% | 100% |  |  |
| CCC(C)(NC(=O)c1ccc2ncsc2c1)C(=O)CCl (stereo not shown) [Compound 4] | 94.2% |  | 100% |  | 50% |  |
| CCC(C)(NC(=O)c1ccc2[nH]ccc2c1)C(=O)C(Cl)Cl (stereo not shown) [Compound 5] | 66.9% |  |  |  | 50% | 0% |
| CCC(C)(NC(=O)c1ccc2[nH]ccc2c1)C(=O)CCl (stereo not shown) [Compound 6] | 88.6% |  | 100% | 100% |  |  |
| CCC(C)(NC(=O)c1ccc2c(c1)CCO2)C(=O)C(Cl)Cl (stereo not shown) [Compound 7] | 94.5% |  |  |  |  |  |
| CCC(C)(NC(=O)c1ccc2ocnc2c1)C(=O)CCl (stereo not shown) [Compound 8] | 93.7% |  | 90% | 100% |  |  |
| CCC(C)(NC(=O)c1ccc2c(c1)CCO2)C(=O)CCl (stereo not shown) [Compound 9] | 91.6% |  | 100% | 0% |  |  |
| CCC(C)(NC(=O)c1cc(Cl)c2nc(C)oc2c1)C(=O)CCl (stereo not shown) [Compound 12] | 90.7% |  | 95% | 90% |  |  |
| CCC(C)(NC(=O)c1ccc2nc(C)oc2c1)C(=O)C(Cl)Cl (stereo not shown) [Compound 14] | 94.5% |  |  |  |  |  |
